US5914242A, “Method for diminishing myocardial infarction using protein phosphatase inhibitors” (priority 1997, dated 1999)

Tested on: PP1/PP2A-chimera (CRHM2)
Assay: Inhibition of recombinant PP1/PP2A chimera
Format: biochemical, human PP1 / bovine PP2A
Description: FIG. 6: Sequence of a PP1/PP2A chimera. To characterize the fostriecin binding site, the N-terminal region of PP1 was ligated to the C-terminal region of PP2A (in bold) to produce a PP1/PP2A-chimera (CRHM2). Previous studies indicate that the okadaic acid binding domain is contained in the C-terminal region of PP2A that was incorporated into CRHM2.
FIG. 7: Effect of fostriecin and okadaic acid on the activity of recombinant CRHM2. CRHM2 activity was assayed in the presence of the indicated amount of fostriecin (FIG. 7A) or okadaic acid (FIG. 7B). […] Assays were conducted as described in FIG. 5. Each point represents the mean ± SE (n>6).
PP1, an enzyme highly homologous to PP2A, could be expressed in a stable manner and in relatively large amounts. Thus, human PP1 was cloned and subcloned into a bacterial expression vector as was done for PP2A. […] To create a hybrid enzyme (a PP1/PP2A chimera) that could be expressed stably like rPP1 but would bind okadaic acid with high affinity like PP2A, a number of mutant forms of PP1 and PP2A were constructed. Then, through mutational analysis, the okadaic acid binding domain of PP2A was identified. The okadaic acid binding domain from PP2A was cloned behind the amino terminal domain of PP1. The hybrid, referred to as CRHM-2, was subcloned into an expression vector. Restriction analysis of CRHM-2 confirmed the identity of the construct.
In these studies, the bacterial expressed PP1/PP2A hybrid enzyme was produced by growing appropriate strains of transformed E. coli at 18° C. for 48 hours in LB-media containing 50 μg/ml ampicillin, 1 mM MnCl2, and 50 μM IPTG. The bacteria were lysed with a French Press, and after centrifugation at 15,000×g for 45 min, the phosphatase was partially purified via ion-exchange [High Q (BioRad) and MonoQ (Pharmacia)] and affinity [Heparin-Sepharose (Pharmacia)] chromatography. The sensitivity of the chimera to fostriecin was determined employing the same protein phosphatase assay employed with endogenous PP1 or PP2A, with the addition of MnCl2 (1 mM) to the assay buffer.

Structure (SMILES): CC(O)(/C=C/C1CC=CC(=O)O1)C(CC(O)\C=C/C=C\C=C\CO)OP(=O)(O)O (centres unmarked) [fostriecin]
- sensitivity / potency of inhibition of the chimera ([32P]-phosphohistone, 1 mM MnCl2 in assay buffer): sensitive
- binding affinity to the recombinant hybrid enzyme (enzyme printed as rPP2Ac-1): affinity comparable to that of PP1
